Assay results as given in patent US20070225242A1, “Method and composition for treating and preventing tumor metastasis in vivo” (The Board of Trustees of the Leland Stanford Junior …, priority 2005, published 2007).

Columns and labels:
MMP-2 = assay: MMP gelatin zymography of RAW macrophages incubated with conditioned media; format: cell-based; conditions: BMDCs incubated 24 h with CM from hypoxic Wt cells
Experimental: We examined changes in BMDC MMP activity induced by CM (FIG. 21C). MMP-9 activity was not affected by LOX or FN alone, but was elevated in CM supplemented with FN regardless of LOX status. This is consistent with our finding that FN has a stronger influence than LOX on BMDC migration.
Gelatin enzymography was performed to assess MMP activity as described. Protein concentrations were quantified to ensure equal loading.

human cancer cells = assay: Cell viability; format: cell-based; conditions: data not shown
MDA-MB 231 cells = MDA-MB 231 cells grown as orthotopic tumors in nude mice; lung and liver metastases
Experimental: In addition, MDA231 cells were grown as orthotopic tumors in nude mice. […] In FIGS. 5 A and B, data were obtained by microscopic quantification of metastases in lungs and livers stained with hematoxylin and eosin. […] 4 wk BAPN represents treatment started at week 4, etc.
To evaluate the therapeutic usefulness of inhibiting LOX, mice with control MDA231 tumors were treated with β-aminoproprionitrile (BAPN), a specific and irreversible inhibitor of LOX enzymatic activity. […] In FIG. 5C, metastases were counted weekly over six weeks for ten sections (n=5 mice). Solid line, with circles control lung; dashed line with triangles, control liver; solid line with squares, BAPN lung; dashed line with squares, BAPN liver. BAPN was started at week 2. Antibody doses: unlabelled, 20 mg kg^−1; asterisk, 4 mg kg^−1; two asterisks, 1 mg kg^−1. Control, n=10; LOX shRNA, n=10; 4 wk BAPN, n=10; 3 wk BAPN, n=3; 2 wk BAPN, n=3; LOX antibody, n=5. Treatment details are given in Methods.
MDA-MB 231 cells were grown as subcutaneous orthotopic tumors in 6-week-old female Nude (nu/nu) mice following intradermal injection of 1×10^7 cells in 0.1 ml of PBS into the mammary fat pad. Mice were sacrificed and tumors excised six weeks after inoculation. […] Lung and liver metastases were defined as gross lesions of at least 25 cells.

[1] = BAPN 100 mg kg-1 daily i.p. or antibody 20 mg kg-1 twice weekly, control MDA231 tumors

N#CCCN [BAPN, β-aminoproprionitrile]
MMP-2 activity (MMP-2): reduced | cell viability (human cancer cells): Neither treatment with BAPN nor treatment with BCS affected cell viability | effect on metastatic tumors already formed (MDA-MB 231 cells; 4 wk BAPN, treatment started at week 4): eliminated tumors that had formed | liver metastases (MDA-MB 231 cells; [1]): did not have any lung metastases or liver metastases | lung metastases (MDA-MB 231 cells; [1]): did not have any lung metastases | metastatic lesions formed in orthotopic studies (MDA-MB 231 cells; BAPN treated mice): completely absent | deleterious side effects (MDA-MB 231 cells; antibody up to 20 mg kg-1 twice weekly, BAPN 100 mg kg-1 daily i.p. for four, three or two weeks): no deleterious side effects | primary tumor growth (MDA-MB 231 cells; inhibition of LOX with shRNA, BAPN or antibody): slight effect on primary tumor growth | invasion of primary tumors (MDA-MB 231 cells; primary tumors from treated mice or tumors expressing LOX shRNA): showed evidence of invasion | liver metastases (MDA-MB 231 cells; reduced antibody doses (4, 1 mg kg-1) or reduced periods of BAPN treatment): no liver metastases | lung metastases (MDA-MB 231 cells; reduced antibody doses (4, 1 mg kg-1) or reduced periods of BAPN treatment, even when metastases had already formed): significantly fewer lung metastases
